Patent US20210087593A1, “N-[…] ALKALOID COMPOUNDS” (Willow BioSciences Inc., priority 2017, published 2021)

Assays:
EsNMT = assay: N-alkylation substrate screen using EsNMT (LC-MS); assay type: biochemical, Ephedra sinica; parameters: key to N-alkylation of substrate alkaloid compounds, Enzyme EsNMT: −=no detectable quantities of product N-alkylated compound; Trace, +, ++, +++=increasing relative levels of product N-alkylated compound; Trace, +, ++, +++=increasing relative levels of product N-alkylated compound; Trace, +, ++, +++=increasing relative levels of product N-alkylated compound; Trace, +, ++, +++=increasing relative levels of product N-alkylated compound; conditions: for N-alkylation of substrate alkaloid compounds, Enzyme EsNMT: 25 μg protein, 1 mM substrate, 1 mM SAM, 60 mM HEPES pH 8, 16 hours at 37° C., relative level of N-alkylated product by LC-MS; for N-alkylated alkaloid product detected after incubation with EsNMT (SEQ. ID NO: 2): incubated in accordance with Example 1, LC-MS
Procedure: The EsNMT coding sequence was amplified from Ephedra sinica cDNA using gene-specific primers containing restriction sites with Q5 HiFi DNA polymerase (NEB). Restriction digests and ligations (NEB) were carried out to generate a pQE plasmid (Qiagen) for heterologous expression of HIS6-tagged recombinant EsNMT. Protein overexpression was carried out at 18° C. in Escherichia coli SG13009 (Qiagen) grown in lysogeny broth (LB) to which 0.5 mM isopropyl β-D-1-thiogalactopyranoside (IPTG) was added.
(§1) Total soluble protein was extracted from each culture and the recombinant NMTs were purified using TALON cobalt affinity resin (Clontech) followed by desalting and concentration with Amicon Ultra-30 centrifugal filters (EMD Millipore). Protein concentration was determined using the Bradford method, and purity was assessed by SDS-PAGE followed by Coomassie staining.
(§2) Forty-four nitrogenous molecules were screened as potential substrates for EsNMT using a standardized assay (25 μg protein, 1 mM substrate, 1 mM SAM, 60 mM HEPES pH 8, 16 hours at 37° C.). In addition, a representative subset was screened as potential substrates for GfCNMT, GfTNMT and PsRNMT under identical conditions. For each substrate and enzyme combination, negative control assays were carried out using protein heated to 100° C. (boiled) for 20 minutes. Assays were quenched with 9 volumes of methanol, centrifuged to pellet insoluble debris and the supernatants were stored at −20° C. prior to analysis.
(§3) Assay supernatants were analyzed by liquid chromatography-mass spectrometry (LC-MS). LC-MS analysis was performed using a 1200 HPLC coupled with a 6410 triple-quadrupole MS (Agilent). Samples (2 μl) were injected onto a Luna […] Phenyl-Hexyl 100 Å HPLC column and analytes were eluted in a gradient of solvent A (0.1% Formic acid, 5% v/v methanol in water) and solvent B (0.1% Formic acid in methanol) at a flow rate of 300 μl per minute. The gradient began at 0% B, reached 35% B by 12 minutes, then increased to 85% B at 14 min and remained at that level until 18 minutes. Subsequently, the mixture returned to 0% B over a period of 3 minutes before a final 6 minute re-equilibration period. Analytes were applied to the mass analyzer using an electrospray ionization probe operating in positive mode with the following condition: capillary voltage, 4000V; fragmentor voltage, 100V, source temperature, 350° C.; nebulizer pressure, 50 PSI; gas flow 10 L/min. Ions were detected in full scan mode where quadrupoles 1 and 2 were set to RF only, whereas the third quadrupole scanned from 100-500 m/z over 525 milliseconds. Substrate acceptance by the enzymes was determined according to the formation of a peak with a 14-m/z increase in mass, corresponding to methylated substrate and a decrease in the substrate peak area, relative to the appropriate boiled control assay.
(§4) Each of the alkaloid substrates shown in Table 1 were incubated with the following N-alkyltransferases: GfCNMT (SEQ. ID NO: 3), gfTNMT (SEQ. ID NO: 4) and Ps RNMT ([…]) and EsNMT (SEQ. ID NO: 2), as described in Example 1. The presence of N-alkylated alkaloid product was detected as described in Examples 1-20. Legend: ND=Not Determined; −=no detectable quantities of product N-alkylated compound; and Trace, +, ++, +++=increasing relative levels of product N-alkylated compound.

GfCNMT = assay: N-alkylation substrate screen using GfCNMT (LC-MS); assay type: biochemical, Glaucium flavum; parameters: key: −=no detectable quantities of product N-alkylated compound; Trace, +, ++, +++=increasing relative levels of product N-alkylated compound; Trace, +, ++, +++=increasing relative levels of product N-alkylated compound; Trace, +, ++, +++=increasing relative levels of product N-alkylated compound; Trace, +, ++, +++=increasing relative levels of product N-alkylated compound; conditions: 25 μg protein, 1 mM substrate, 1 mM SAM, 60 mM HEPES pH 8, 16 hours at 37° C.; relative level of N-alkylated product by LC-MS
Procedure: (§5) The GfCNMT, GfTNMT and PsRNMT coding sequences were amplified from Glaucium flavum (GfCNMT and GfTNMT) or Papaver somniferum (PsRNMT) cDNA using gene-specific primers containing attB recombination sites with Q5 HiFi DNA polymerase (NEB). Recombination reactions were carried out using BP and LR Clonase II (Thermo Scientific) to generate individual pDONR221 entry plasmids and, subsequently, individual pHGWA plasmids for heterologous expression of polyhistidine (HIS6)-tagged recombinant GfCNMT, GfTNMT and PsRNMT. Protein overexpression was carried out at 18° C. using E. coli ArcticExpress (Agilent) grown in Studier's autoinduction media.
as §1, §2, §3, §4

GfTNMT = assay: N-alkylation substrate screen using GfTNMT (LC-MS); assay type: biochemical, Glaucium flavum; parameters: key: −=no detectable quantities of product N-alkylated compound; Trace, +, ++, +++=increasing relative levels of product N-alkylated compound; Trace, +, ++, +++=increasing relative levels of product N-alkylated compound; Trace, +, ++, +++=increasing relative levels of product N-alkylated compound; Trace, +, ++, +++=increasing relative levels of product N-alkylated compound; conditions: 25 μg protein, 1 mM substrate, 1 mM SAM, 60 mM HEPES pH 8, 16 hours at 37° C.; relative level of N-alkylated product by LC-MS
Procedure: as §5, §1, §2, §3, §4

PsRNMT = assay: N-alkylation substrate screen using PsRNMT (LC-MS); assay type: biochemical, Papaver somniferum; parameters: key: −=no detectable quantities of product N-alkylated compound; Trace, +, ++, +++=increasing relative levels of product N-alkylated compound; Trace, +, ++, +++=increasing relative levels of product N-alkylated compound; Trace, +, ++, +++=increasing relative levels of product N-alkylated compound; Trace, +, ++, +++=increasing relative levels of product N-alkylated compound; conditions: 25 μg protein, 1 mM substrate, 1 mM SAM, 60 mM HEPES pH 8, 16 hours at 37° C.; relative level of N-alkylated product by LC-MS
Procedure: as §5, §1, §2, §3, §4

Structure (SMILES)	N-alkylation of substrate alkaloid compounds, Enzyme EsNMT (EsNMT)	N-alkylation of substrate alkaloid compounds, Enzyme GfCNMT (GfCNMT)	N-alkylation of substrate alkaloid compounds, Enzyme GfTNMT (GfTNMT)	N-alkylation of substrate alkaloid compounds, Enzyme PsRNMT (PsRNMT)	N-alkylated alkaloid product detected after incubation with EsNMT (SEQ. ID NO: 2) (EsNMT)
CC(C)NC[C@H](O)COc1cccc2ccccc12 (racemic) [Propanolol, propanolol, reference compound]	+	++	+++	+++	
NCCc1ccccc1 [2-Phenylethaneamine, 2-phenylethan-1-amine]	+	Trace	Trace	−	
CC(N)Cc1ccccc1 (centres unmarked) [Amphetamine, amphetamine, reference compound]	+	Trace	Trace	−	
COc1cc2c(cc1O)C(Cc1ccc(O)cc1)NCC2 (centres unmarked) [Coclaurine, coclaurine]	+	+++	+	++	
COc1ccc2c3c([nH]c2c1)C(C)=NCC3 [Harmaline, harmaline]	+	+	−	−	
COc1ccc2c(c1)[nH]c1c(C)nccc12 [Harmine, harmine]	−	++	−	−	No N-alkylated alkaloid product compounds were detected
NCCc1c[nH]cn1 [Histamine, histamine]	−	−	−	−	No N-alkylated alkaloid product compounds were detected
COc1cc(CCN)cc(OC)c1OC [Mescaline, mescaline]	+	−	−	−	
NC(=O)c1cccnc1 [Nicotinamide, nicotinamide]	−	−	−	−	No N-alkylated alkaloid product compounds were detected
CC(N)C(O)c1ccccc1 (centres unmarked) [Norephedrine, norephedrine]	+	−	−	−	
COc1ccc2c(c1OC)C(=O)O[C@@H]2[C@H]1c2c(cc3c(c2OC)OCO3)CCN1C [Noscapine, noscapine, reference compound]	−	Trace	+++	++	No N-alkylated alkaloid product compounds were detected
COc1ccc(C[C@H]2c3cc(O)c(OC)cc3CCN2C)cc1O [S-Reticuline, reticuline]	+	+	++	+++	
c1cc2c(c3c1C[C@H]1c4cc5c(cc4CCN1C3)OCO5)OCO2 [Stylopine, stylopine]	+	+	+	+++	
COc1cc2c(cc1OC)CNCC2 [THQ2, 6,7-dimethoxy-1,2,3,4-tetrahydroisoquinoline]	+++	+++	+	+	
NCCc1c[nH]c2ccccc12 [Tryptamine, tryptamine]	+++	Trace	Trace	Trace	
NCCc1ccc(O)cc1 [Tyramine, tyramine]	+	+	−	−	
